The structures appear in SMILES notation.

Sequence of Tyrosine-protein kinase CSK (Homo sapiens) (P41240 whole entry, looked up): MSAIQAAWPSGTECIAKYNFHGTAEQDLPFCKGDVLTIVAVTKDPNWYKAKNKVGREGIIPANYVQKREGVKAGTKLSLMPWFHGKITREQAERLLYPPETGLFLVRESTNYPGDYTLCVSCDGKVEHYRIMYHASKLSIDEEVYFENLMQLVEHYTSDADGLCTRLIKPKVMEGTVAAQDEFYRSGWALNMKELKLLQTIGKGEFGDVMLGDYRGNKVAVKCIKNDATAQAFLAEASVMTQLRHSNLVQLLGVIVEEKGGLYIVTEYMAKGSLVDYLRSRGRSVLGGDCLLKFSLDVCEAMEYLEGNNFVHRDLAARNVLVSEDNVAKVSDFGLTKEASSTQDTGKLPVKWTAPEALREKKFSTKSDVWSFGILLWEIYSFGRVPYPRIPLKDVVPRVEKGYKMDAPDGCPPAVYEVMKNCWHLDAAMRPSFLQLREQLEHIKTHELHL

For the first test, the target named is T1, Proto-oncogene tyrosine-protein kinase Src (Homo sapiens, UniProt P12931). Briefly: Inhibition of c-Src after 60 mins.
T1 sequence (P12931 2-536 limits assumed): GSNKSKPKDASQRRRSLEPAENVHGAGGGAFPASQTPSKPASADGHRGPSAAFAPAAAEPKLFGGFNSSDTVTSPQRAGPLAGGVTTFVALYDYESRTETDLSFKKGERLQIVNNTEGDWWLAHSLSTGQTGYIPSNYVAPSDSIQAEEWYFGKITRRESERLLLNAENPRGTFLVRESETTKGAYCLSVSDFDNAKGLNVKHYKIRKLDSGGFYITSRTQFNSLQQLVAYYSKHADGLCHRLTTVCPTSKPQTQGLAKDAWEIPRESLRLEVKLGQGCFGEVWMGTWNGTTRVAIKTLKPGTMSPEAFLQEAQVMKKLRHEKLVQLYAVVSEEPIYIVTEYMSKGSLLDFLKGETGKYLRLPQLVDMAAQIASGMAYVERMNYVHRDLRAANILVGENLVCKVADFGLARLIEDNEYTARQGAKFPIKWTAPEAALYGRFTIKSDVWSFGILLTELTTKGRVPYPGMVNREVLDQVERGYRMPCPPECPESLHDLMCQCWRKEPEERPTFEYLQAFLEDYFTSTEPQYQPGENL
As for `Cc1ccc(-c2cn(C3CCCCCC3=O)nn2)cc1` (configuration not stated), the midpoint of inhibition, the IC50, lay at 66.1 µM.

Turning to `O=C(Cn1cc(-c2ccccc2)nn1)c1ccc(Cl)cc1`, the IC50 (usually the concentration needed to halve the response being measured) was determined as 139 µM.

The molecule `O=C(Cn1cc(-c2ccccc2)nn1)c1ccccc1` came in with an IC50 greater than 100 µM.

As to `Cc1ccc(-c2cn(CC(=O)c3cc4ccccc4oc3=O)nn2)cc1`, the IC50 is greater than 150 µM.

`Cc1ccc(-c2cn(C3CCCC3=O)nn2)cc1` (configuration not stated) displayed an IC50 of 62.1 µM.

As for `O=C(Cn1cc(-c2ccsc2)nn1)c1ccc(Cl)cc1`, the IC50 is greater than 150 µM.

`Cc1cc(-c2cn(CC(=O)c3ccccc3)nn2)ccc1F` registered an IC50 of 81 µM.

On to `O=C(Cn1cc(-c2ccccc2)nn1)c1cccs1`, for which half-maximal inhibition (IC50) required 32.5 µM. Compared with the last molecule, the IC50 is about 2.5-fold lower.

Consider `CC(=O)Cn1cc(-c2ccccc2)nn1`, for which the IC50 is greater than 150 µM.

As for `COC(=O)Cn1cc(-c2ccccc2)nn1`, the IC50 was greater than 100 µM.

The molecule `O=C(/C=C/c1ccccc1)Cn1cc(-c2ccccc2)nn1` yielded a concentration for half-maximal inhibition (IC50) greater than 100 µM.

Molecule `O=C1CCCCC1n1cc(-c2ccccc2)nn1` (configuration not stated) returned an IC50 of 43.2 µM.

For `CCNC(=O)Cn1cc(-c2ccccc2)nn1`, the IC50 was greater than 150 µM.

Turning to `Cc1ccc(-c2cn(CC(=O)c3ccccc3)nn2)cc1`, inhibition was half-maximal at 41.6 µM (IC50).

As for `Cc1ccc(-c2cn(CC(=O)c3ccc(Cl)cc3)nn2)cc1`, the 50% inhibitory concentration (IC50) amounted to 109 µM.

In the case of `COc1ccc(C(=O)Cn2cc(-c3cccc(C)c3)nn2)cc1`, the IC50 stood at 72.8 µM.

For `CC(=O)Cn1cc(-c2ccc(C)cc2)nn1`, the concentration for half-maximal inhibition (IC50) is greater than 150 µM.

For the molecule `O=C(Cn1cc(-c2ccccc2)nn1)c1ccc(-c2cc3ccccc3oc2=O)cc1`, inhibition was half-maximal at 89.5 µM (IC50).

Consider `O=C1CCCC1n1cc(-c2ccccc2)nn1` (configuration not stated), for which half-maximal inhibition (IC50) was put at 106 µM.

As for `O=C(Cn1cc(CCCCCl)nn1)c1ccc(Br)cc1`, the IC50 is greater than 100 µM.

In turn, `COc1ccc(C(=O)Cn2cc(-c3ccccc3)nn2)cc1` gave an IC50 greater than 100 µM.

As to `Cc1ccc(-c2cn(C3CCCCC3=O)nn2)cc1` (configuration not stated), 33.9 µM corresponded to half-maximal inhibition (IC50). This counts as double-digit micromolar.

Molecule `Cc1ccc(C(=O)Cn2cc(-c3ccc(C)cc3)nn2)cc1` yielded an IC50 of 49.8 µM.

As for `Cc1ccc(C(=O)Cn2cc(-c3ccc(F)c(C)c3)nn2)cc1`, the IC50 was determined as 82.3 µM.

The target in another test is Epidermal growth factor receptor (Homo sapiens, UniProt P00533). Briefly: Inhibition of human EGFR.
Sequence of Epidermal growth factor receptor (P00533 whole entry): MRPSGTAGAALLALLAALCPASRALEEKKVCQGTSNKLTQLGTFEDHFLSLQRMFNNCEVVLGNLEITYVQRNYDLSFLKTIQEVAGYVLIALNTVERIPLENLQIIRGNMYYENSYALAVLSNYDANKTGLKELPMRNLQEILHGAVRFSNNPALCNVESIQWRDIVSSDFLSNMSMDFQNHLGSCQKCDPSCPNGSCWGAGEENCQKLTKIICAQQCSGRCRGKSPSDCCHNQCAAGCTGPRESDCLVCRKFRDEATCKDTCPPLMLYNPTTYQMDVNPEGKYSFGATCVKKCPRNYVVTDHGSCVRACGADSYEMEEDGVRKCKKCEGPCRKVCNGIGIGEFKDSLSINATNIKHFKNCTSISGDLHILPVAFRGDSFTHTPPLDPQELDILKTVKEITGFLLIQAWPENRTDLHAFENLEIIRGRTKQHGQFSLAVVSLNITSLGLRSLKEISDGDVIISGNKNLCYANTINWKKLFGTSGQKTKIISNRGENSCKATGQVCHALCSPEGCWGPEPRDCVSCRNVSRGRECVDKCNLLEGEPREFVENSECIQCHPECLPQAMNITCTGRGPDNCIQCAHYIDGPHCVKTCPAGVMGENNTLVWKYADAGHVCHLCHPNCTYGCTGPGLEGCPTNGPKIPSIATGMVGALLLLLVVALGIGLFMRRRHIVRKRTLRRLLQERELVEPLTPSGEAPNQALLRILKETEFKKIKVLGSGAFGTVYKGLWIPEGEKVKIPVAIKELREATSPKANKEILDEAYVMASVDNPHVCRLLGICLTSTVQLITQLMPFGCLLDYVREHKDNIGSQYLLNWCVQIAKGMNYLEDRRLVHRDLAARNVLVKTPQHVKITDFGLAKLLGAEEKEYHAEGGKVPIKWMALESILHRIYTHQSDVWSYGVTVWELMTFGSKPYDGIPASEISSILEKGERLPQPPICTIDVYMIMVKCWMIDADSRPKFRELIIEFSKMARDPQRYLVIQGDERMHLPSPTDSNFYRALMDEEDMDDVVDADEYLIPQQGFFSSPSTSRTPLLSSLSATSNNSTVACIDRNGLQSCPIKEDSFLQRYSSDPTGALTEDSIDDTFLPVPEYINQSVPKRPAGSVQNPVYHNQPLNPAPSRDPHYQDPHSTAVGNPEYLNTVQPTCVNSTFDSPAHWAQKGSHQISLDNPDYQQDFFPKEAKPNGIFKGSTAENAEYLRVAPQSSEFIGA
In turn, `Cc1ccc(-c2cn(C3CCCCC3=O)nn2)cc1` (configuration not stated) yielded an IC50 greater than 100 µM.

For the next test, the target named is Tyrosine-protein kinase Lck (Homo sapiens, UniProt P06239). Put plainly: Inhibition of human activated Lck.
Sequence of Tyrosine-protein kinase Lck (P06239 whole entry): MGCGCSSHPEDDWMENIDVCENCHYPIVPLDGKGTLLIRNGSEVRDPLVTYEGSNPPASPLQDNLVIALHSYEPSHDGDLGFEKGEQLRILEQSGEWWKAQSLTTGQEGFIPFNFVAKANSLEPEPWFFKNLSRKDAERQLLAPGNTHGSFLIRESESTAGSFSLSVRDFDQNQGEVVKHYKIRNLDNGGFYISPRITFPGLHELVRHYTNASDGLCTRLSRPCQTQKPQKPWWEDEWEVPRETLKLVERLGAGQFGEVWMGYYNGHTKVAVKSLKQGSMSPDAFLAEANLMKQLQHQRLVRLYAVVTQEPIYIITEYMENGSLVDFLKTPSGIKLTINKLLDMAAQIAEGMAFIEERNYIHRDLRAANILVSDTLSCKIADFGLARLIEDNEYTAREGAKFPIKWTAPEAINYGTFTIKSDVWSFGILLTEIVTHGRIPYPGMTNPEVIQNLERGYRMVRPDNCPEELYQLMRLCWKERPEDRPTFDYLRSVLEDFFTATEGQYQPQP
`Cc1ccc(-c2cn(C3CCCCC3=O)nn2)cc1` (configuration not stated) yielded a half-inhibitory concentration (IC50) greater than 100 µM.

A further test addresses T1, Proto-oncogene tyrosine-protein kinase Src. Put plainly: Inhibition of c-Src at 75 uM after 60 mins.
Turning to `Cc1ccc(-c2cn(CC(=O)c3ccc(Br)cc3)nn2)cc1`, the inhibition – broadly, the share of the control response that was lost under treatment – was less than 10%.

Molecule `O=C(Cn1cc(-c2ccccn2)nn1)c1ccccc1` had an inhibition of less than 10%.

The molecule `O=C1CCCC1n1cc(-c2ccc(F)cc2)nn1` (configuration not stated) displayed an inhibition of less than 10%.

For `O=C1CCCCC1n1cc(-c2ccsc2)nn1` (configuration not stated), the inhibition is less than 10%.

`COc1ccc(-c2cn(C3CCCC3=O)nn2)cc1` (configuration not stated) had an inhibition of less than 10%.

`COc1ccc(-c2cn(CC(=O)c3ccc(Cl)cc3)nn2)cc1`: the inhibition was less than 10%.

`O=C1CCCCC1n1cc(-c2ccc(F)cc2)nn1` (configuration not stated) came in with an inhibition of less than 10%.

In the case of `O=C(Cn1cc(-c2ccc(F)cc2)nn1)c1ccc(Br)cc1`, the inhibition is less than 10%.

Take `CCCCc1cn(CC(=O)c2ccc(Br)cc2)nn1`: the inhibition is less than 10%.

Molecule `O=C1CCC(n2cc(-c3ccccc3)nn2)C1` (configuration not stated) had an inhibition of less than 10%.

`O=C(Cn1cc(-c2ccc(F)cc2)nn1)c1ccc(Cl)cc1` gave an inhibition of less than 10%.

As for `CCCCc1cn(CC(=O)c2ccccc2)nn1`, the inhibition is less than 10%.

As to `O=C1CCCC(n2cc(-c3ccccc3)nn2)C1` (configuration not stated), the inhibition is less than 10%.

`COc1ccc(-c2cn(C3CCCCC3=O)nn2)cc1` (configuration not stated) showed an inhibition of less than 10%.

In turn, `O=C1CCCC1n1cc(-c2ccsc2)nn1` (configuration not stated) showed an inhibition of less than 10%.

A further test concerns the target Tyrosine-protein kinase CSK (Homo sapiens) (UniProt P41240). Put plainly: Inhibition of human Cck.
For the molecule `Cc1ccc(-c2cn(C3CCCCC3=O)nn2)cc1` (configuration not stated), the IC50 is greater than 100 µM.

The values above are taken from ChEMBL document CHEMBL1641405, “Click chemistry inspired one-pot synthesis of 1,4-disubstituted 1,2,3-triazoles and their Src kinase inhibitory activity” (Bioorg Med Chem Lett, 2011).
